# Source: article PMC10846046, “The mechanism of action of auranofin analogs in B. cenocepacia revealed by chemogenomic profiling” (Microbiology Spectrum, 2024)
# Columns and labels:
# [1] = molecular target: T1, GOR (glutathione reductase) (Burkholderia cenocepacia, UniProt B4E8M8); test: NADPH consumption, absorbance at […] nm; assay type: biochemical; details: GSSG as electron acceptor
# T1 construct: full gene in pET-22+, C-terminal 6xHis tag kept, E. coli BL21(DE3)-Gold; purified as TrxB
# T1 sequence (B4E8M8 1-451): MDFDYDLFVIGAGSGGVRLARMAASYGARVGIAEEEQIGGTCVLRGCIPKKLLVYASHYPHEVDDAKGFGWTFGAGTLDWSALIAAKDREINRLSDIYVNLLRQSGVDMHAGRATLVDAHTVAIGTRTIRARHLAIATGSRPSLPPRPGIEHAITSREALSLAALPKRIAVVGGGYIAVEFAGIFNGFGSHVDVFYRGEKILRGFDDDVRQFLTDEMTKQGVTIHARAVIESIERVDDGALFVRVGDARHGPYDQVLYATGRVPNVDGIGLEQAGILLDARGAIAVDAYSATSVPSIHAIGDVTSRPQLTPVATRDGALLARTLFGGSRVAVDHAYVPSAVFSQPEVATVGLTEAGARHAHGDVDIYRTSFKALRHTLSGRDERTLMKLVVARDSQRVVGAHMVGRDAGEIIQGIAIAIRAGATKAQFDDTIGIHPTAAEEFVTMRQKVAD
# [2] = molecular target: T2, TrxB (thioredoxin reductase) (Burkholderia cenocepacia, UniProt B4EBR9); test: DTNB reduction, absorbance at […] nm; assay type: biochemical
# T2 construct: full gene in pET24b+, C-terminal 6xHis tag kept, E. coli BL21(DE3); Ni-NTA and size exclusion
# T2 sequence (B4EBR9 1-320): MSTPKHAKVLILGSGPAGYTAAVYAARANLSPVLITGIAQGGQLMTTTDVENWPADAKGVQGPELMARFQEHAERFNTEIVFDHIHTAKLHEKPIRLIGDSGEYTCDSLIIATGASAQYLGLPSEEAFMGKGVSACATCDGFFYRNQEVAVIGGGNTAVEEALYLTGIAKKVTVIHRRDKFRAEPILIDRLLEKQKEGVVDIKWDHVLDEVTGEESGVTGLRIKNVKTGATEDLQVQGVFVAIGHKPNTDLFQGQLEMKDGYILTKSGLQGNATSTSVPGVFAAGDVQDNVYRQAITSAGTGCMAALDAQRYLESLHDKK
Structure (SMILES),"NADPH consumption, absorbance at 340 nm [1]","DTNB reduction, absorbance at 412 nm ([2]; DTNB as electron acceptor)","DTNB reduction, absorbance at 412 nm ([2]; NADPH as electron source)"
NC(=O)C1=CN([C@@H]2O[C@H](COP(=O)(O)OP(=O)(O)OC[C@H]3O[C@@H](n4cnc5c(N)ncnc54)[C@H](OP(=O)(O)O)[C@@H]3O)[C@@H](O)[C@H]2O)C=CC1 [NADPH],"oxidized glutathione is reduced to reduced glutathione, with NADPH as a source of electrons","in the presence of substrate DTNB is reduced to TNB, with NADPH as a source",–
O=C(O)c1cc(SSc2ccc([N+](=O)[O-])c(C(=O)O)c2)ccc1[N+](=O)[O-] [DTNB],–,–,"in the presence of substrate DTNB is reduced to TNB, with NADPH as a source"
